The text below walks through data of ChEMBL document CHEMBL4371069, “Click chemistry for improvement in selectivity of quinazoline-based kinase inhibitors for mutant epidermal growth factor receptors” (Bioorg Med Chem Lett, 2019).

Some results are limits rather than exact numbers.

One series deals with NCI-H1975. Kind of series: Antiproliferative activity against human NCI-H1975 cells harboring EGFR T790M/L858R double mutant after 72 hrs by EZ-Cytox assay. To be noted: NCI-H1975, 72 h. Format: functional, cell-based.
The next series has as its system PC-9. Kind of series: Antiproliferative activity against human PC9 cells harboring EGFR exon-19 del mutant after 72 hrs by EZ-Cytox assay. Format: functional, cell-based. To be noted: PC-9, 72 h.
The test system of a further series is A549. Kind of series: Antiproliferative activity against human A549 cells harboring wild-type EGFR after 72 hrs by EZ-Cytox assay. Format: ADME, cell-based. Conditions: A549, 72 h.
Another series concerns SK-BR-3. Description: Antiproliferative activity against HER2-dependant human SKBR3 cells after 72 hrs by EZ-Cytox assay. Format: ADME, cell-based. Conditions: SK-BR-3, 72 h.
The target in a further series is T1, CYP1A2 (Homo sapiens, UniProt P05177).
T1 sequence (P05177 whole entry): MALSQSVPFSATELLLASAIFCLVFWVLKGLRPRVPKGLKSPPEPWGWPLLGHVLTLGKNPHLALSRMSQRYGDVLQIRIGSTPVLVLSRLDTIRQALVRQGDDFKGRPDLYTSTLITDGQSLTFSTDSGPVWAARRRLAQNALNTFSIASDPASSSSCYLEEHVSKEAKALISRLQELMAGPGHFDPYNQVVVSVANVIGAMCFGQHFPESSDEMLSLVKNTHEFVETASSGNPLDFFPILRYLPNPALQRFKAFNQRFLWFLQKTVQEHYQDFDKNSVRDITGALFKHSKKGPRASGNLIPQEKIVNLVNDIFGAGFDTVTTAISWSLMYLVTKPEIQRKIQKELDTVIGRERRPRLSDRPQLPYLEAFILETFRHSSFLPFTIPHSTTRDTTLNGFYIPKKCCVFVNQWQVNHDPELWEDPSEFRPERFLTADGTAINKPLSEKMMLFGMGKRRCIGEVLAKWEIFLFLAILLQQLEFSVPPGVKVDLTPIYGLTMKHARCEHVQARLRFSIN
Kind of series: Inhibition of CYP1A2 in human liver microsomes assessed as residual activity at 10 uM using phenacetin as substrate preincubated for 5 mins followed by NADPH addition and measured after 15 mins by LC-MS/MS analysis relative to control. Format: ADME. Conditions: probe phenacetin, read-out: Activity. (In general: Liver microsomes are vesicles of endoplasmic reticulum, rich in cytochrome P450 enzymes.)

Another series has as its target T2, CYP2A6 (Homo sapiens, UniProt P11509).
T2 sequence (P11509 whole entry): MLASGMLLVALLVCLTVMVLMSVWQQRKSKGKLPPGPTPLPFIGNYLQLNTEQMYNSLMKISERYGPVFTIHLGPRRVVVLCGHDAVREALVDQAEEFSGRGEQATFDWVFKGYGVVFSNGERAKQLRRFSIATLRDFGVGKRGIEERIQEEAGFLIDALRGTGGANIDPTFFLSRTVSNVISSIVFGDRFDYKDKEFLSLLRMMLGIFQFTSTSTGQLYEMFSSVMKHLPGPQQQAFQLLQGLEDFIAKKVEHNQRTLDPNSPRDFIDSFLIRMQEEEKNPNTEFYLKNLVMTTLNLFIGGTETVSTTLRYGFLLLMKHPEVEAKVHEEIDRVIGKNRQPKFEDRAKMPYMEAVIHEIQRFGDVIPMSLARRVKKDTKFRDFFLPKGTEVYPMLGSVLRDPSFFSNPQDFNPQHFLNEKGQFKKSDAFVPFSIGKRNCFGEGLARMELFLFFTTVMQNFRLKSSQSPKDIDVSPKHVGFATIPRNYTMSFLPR
Description: Inhibition of CYP2A6 in human liver microsomes assessed as residual activity at 10 uM using coumarin as substrate preincubated for 5 mins followed by NADPH addition and measured after 15 mins by LC-MS/MS analysis relative to control. Format: ADME. To be noted: probe coumarin, read-out: Activity.

Another series concerns the target T3, CYP2B6 (Homo sapiens, UniProt P20813).
T3 sequence (P20813 whole entry): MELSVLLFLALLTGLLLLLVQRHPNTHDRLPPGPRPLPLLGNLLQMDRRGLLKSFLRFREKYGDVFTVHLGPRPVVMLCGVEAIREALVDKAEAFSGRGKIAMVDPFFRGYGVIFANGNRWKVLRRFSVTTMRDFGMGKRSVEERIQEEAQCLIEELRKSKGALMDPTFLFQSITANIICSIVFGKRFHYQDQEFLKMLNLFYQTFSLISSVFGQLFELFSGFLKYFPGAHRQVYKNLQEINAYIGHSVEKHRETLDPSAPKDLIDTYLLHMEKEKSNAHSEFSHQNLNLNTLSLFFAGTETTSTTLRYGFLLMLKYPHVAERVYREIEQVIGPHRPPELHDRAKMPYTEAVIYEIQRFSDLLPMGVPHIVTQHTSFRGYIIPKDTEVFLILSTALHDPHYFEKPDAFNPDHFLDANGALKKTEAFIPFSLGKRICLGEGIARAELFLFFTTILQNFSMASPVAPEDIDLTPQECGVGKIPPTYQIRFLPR
Description: Inhibition of CYP2B6 in human liver microsomes assessed as residual activity at 10 uM using bupropion as substrate preincubated for 5 mins followed by NADPH addition and measured after 15 mins by LC-MS/MS analysis relative to control. To be noted: probe bupropion, read-out: Activity. Format: ADME.

The target in the next series is T4, CYP2C8 (Homo sapiens, UniProt P10632).
T4 sequence (P10632 whole entry): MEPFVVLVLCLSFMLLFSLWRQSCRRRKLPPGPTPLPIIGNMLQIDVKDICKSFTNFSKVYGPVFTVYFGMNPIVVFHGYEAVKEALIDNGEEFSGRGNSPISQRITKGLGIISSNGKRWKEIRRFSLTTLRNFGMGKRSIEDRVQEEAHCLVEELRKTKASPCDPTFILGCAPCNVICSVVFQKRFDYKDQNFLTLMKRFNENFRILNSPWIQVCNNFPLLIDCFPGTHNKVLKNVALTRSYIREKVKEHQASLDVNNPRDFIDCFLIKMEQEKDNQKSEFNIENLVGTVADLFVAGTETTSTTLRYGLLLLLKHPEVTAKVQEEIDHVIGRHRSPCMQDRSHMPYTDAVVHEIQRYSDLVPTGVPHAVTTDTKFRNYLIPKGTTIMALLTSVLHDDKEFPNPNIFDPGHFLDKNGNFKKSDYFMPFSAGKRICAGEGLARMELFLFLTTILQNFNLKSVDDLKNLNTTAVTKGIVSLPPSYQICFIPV
Kind of series: Inhibition of CYP2C8 in human liver microsomes assessed as residual activity at 10 uM using amiodiaquine as substrate preincubated for 5 mins followed by NADPH addition and measured after 15 mins by LC-MS/MS analysis relative to control. Format: ADME. To be noted: probe amiodiaquine, read-out: Activity.

The target in the next series is CYP2C9 (Homo sapiens, UniProt P11712). Description: Inhibition of CYP2C9 in human liver microsomes assessed as residual activity at 10 uM using tolbutamide as substrate preincubated for 5 mins followed by NADPH addition and measured after 15 mins by LC-MS/MS analysis relative to control. Format: ADME. Conditions: probe tolbutamide, read-out: Activity.
The target of the next series is CYP2C19 (Homo sapiens, UniProt P33261). Description: Inhibition of CYP2C19 in human liver microsomes assessed as residual activity at 10 uM using S-mephenytoin as substrate preincubated for 5 mins followed by NADPH addition and measured after 15 mins by LC-MS/MS analysis relative to control. Format: ADME. Conditions: probe S-mephenytoin, read-out: Activity.
A further series concerns the target CYP2E1 (Homo sapiens, UniProt P05181). Kind of series: Inhibition of CYP2E1 in human liver microsomes assessed as residual activity at 10 uM using chlorzoxazone as substrate preincubated for 5 mins followed by NADPH addition and measured after 15 mins by LC-MS/MS analysis relative to control. Format: ADME. Conditions: probe chlorzoxazone, read-out: Activity.

A further series has as its target CYP3A4 (Homo sapiens, UniProt P08684). Description: Inhibition of CYP3A4 in human liver microsomes assessed as residual activity at 10 uM using midazolam as substrate preincubated for 5 mins followed by NADPH addition and measured after 15 mins by LC-MS/MS analysis relative to control. Format: ADME. To be noted: probe midazolam, read-out: Activity.
Series [1] addresses Epidermal growth factor receptor (Homo sapiens, UniProt P00533). Format: ADME, cell-based, Sf21.
Description: Inhibition of human N-terminal GST-tagged EGFR kinase domain (696 to end residues) expressed in baculovirus infected sf21 cells using poly(Glu, Tyr) 4:1 as substrate
Series [2] deals with Epidermal growth factor receptor (Homo sapiens, UniProt P00533, L858R/T790M). Description: biochemical. Format: cell-based, Sf21.
Sequence of Epidermal growth factor receptor (Homo sapiens, UniProt P00533, L858R/T790M) (P00533 25-1210 T790M/L858R limits assumed): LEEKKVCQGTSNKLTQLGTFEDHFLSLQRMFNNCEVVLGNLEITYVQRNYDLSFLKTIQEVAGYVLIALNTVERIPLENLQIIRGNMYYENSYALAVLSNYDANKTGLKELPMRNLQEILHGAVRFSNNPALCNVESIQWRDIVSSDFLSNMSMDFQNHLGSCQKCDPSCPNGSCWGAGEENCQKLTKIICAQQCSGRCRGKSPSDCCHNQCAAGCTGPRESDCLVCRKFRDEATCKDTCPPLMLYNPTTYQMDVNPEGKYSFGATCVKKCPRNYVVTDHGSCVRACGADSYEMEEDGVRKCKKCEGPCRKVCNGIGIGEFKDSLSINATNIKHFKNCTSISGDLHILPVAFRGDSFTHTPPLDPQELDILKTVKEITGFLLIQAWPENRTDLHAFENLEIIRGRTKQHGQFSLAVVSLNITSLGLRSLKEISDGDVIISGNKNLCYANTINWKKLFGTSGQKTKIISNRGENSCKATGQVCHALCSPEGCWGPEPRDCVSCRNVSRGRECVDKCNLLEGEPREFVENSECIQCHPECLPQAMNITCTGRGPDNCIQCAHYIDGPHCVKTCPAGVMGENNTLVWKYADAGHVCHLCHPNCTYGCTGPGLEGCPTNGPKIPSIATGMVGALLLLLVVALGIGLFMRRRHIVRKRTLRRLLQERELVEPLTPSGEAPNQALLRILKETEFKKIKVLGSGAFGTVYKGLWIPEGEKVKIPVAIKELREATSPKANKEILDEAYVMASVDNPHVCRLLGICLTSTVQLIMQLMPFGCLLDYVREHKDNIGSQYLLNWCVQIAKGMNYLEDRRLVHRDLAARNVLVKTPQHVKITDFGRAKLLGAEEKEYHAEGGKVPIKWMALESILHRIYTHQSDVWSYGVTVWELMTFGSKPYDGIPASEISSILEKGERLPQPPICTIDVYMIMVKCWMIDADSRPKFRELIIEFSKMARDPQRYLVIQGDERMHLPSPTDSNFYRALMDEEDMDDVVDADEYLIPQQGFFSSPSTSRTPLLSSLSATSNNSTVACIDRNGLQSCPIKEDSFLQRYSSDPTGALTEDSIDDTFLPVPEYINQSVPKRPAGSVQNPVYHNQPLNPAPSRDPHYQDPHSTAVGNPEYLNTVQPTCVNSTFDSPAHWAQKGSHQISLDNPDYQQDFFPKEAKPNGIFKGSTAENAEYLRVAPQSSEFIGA
In series [3] the target is Receptor tyrosine-protein kinase erbB-2 (Homo sapiens, UniProt P04626). Kind of series: Inhibition of human C-terminal His6-tagged ERBB2 (676 to end residues) expressed in baculovirus infected sf21 cells using poly(Glu, Tyr) 4:1 as substrate.
Sequence of Receptor tyrosine-protein kinase erbB-2 (P04626 whole entry): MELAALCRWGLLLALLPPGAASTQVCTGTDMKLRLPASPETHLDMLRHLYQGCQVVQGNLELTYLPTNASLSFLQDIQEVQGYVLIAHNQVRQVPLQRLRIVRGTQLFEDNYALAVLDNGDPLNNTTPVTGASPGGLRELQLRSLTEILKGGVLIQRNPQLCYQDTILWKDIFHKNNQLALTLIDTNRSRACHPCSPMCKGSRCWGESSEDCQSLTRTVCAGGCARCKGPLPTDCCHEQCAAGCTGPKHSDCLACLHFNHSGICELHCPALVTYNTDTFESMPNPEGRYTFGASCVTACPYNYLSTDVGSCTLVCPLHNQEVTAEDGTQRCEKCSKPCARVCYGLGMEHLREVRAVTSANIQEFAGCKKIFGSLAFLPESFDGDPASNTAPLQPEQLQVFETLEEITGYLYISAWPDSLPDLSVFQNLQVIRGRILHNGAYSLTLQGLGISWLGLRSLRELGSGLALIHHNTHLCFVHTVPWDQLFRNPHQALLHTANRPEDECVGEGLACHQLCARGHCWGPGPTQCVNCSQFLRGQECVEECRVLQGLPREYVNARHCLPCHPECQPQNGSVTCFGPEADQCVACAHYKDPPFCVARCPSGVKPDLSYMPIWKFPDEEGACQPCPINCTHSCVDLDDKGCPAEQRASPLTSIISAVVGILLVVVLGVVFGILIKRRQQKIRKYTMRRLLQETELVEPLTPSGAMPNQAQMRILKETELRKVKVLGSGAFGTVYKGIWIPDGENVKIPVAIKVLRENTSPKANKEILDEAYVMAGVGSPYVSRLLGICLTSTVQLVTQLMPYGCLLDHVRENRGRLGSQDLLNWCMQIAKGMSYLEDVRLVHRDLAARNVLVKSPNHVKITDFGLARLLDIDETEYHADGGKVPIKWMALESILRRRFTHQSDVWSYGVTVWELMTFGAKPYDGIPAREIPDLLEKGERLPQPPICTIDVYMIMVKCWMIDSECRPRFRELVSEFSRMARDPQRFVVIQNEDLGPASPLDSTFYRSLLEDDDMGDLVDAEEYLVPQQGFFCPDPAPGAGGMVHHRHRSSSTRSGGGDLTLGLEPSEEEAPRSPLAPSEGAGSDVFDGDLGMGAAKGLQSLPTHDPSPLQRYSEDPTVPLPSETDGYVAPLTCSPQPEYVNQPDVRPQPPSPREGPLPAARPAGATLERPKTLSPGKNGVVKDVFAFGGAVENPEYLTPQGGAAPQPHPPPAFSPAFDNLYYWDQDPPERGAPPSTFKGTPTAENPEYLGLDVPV
Series [4] is described as follows: Safety index, ratio of compound IC50 to afatinib IC50 for antiproliferative activity against HER2-dependant human SKBR3 cells. Format: cell-based. To be noted: SK-BR-3 cells (HER2-dependent), read-out: Ratio IC50.
Another series relates to HepG2. Description: Cytotoxicity against human HepG2 cells after 24 hrs by LDH release assay. Format: cell-based. To be noted: HepG2, 24 h.

Sequence of Epidermal growth factor receptor (Homo sapiens, UniProt P00533) (P00533 whole entry): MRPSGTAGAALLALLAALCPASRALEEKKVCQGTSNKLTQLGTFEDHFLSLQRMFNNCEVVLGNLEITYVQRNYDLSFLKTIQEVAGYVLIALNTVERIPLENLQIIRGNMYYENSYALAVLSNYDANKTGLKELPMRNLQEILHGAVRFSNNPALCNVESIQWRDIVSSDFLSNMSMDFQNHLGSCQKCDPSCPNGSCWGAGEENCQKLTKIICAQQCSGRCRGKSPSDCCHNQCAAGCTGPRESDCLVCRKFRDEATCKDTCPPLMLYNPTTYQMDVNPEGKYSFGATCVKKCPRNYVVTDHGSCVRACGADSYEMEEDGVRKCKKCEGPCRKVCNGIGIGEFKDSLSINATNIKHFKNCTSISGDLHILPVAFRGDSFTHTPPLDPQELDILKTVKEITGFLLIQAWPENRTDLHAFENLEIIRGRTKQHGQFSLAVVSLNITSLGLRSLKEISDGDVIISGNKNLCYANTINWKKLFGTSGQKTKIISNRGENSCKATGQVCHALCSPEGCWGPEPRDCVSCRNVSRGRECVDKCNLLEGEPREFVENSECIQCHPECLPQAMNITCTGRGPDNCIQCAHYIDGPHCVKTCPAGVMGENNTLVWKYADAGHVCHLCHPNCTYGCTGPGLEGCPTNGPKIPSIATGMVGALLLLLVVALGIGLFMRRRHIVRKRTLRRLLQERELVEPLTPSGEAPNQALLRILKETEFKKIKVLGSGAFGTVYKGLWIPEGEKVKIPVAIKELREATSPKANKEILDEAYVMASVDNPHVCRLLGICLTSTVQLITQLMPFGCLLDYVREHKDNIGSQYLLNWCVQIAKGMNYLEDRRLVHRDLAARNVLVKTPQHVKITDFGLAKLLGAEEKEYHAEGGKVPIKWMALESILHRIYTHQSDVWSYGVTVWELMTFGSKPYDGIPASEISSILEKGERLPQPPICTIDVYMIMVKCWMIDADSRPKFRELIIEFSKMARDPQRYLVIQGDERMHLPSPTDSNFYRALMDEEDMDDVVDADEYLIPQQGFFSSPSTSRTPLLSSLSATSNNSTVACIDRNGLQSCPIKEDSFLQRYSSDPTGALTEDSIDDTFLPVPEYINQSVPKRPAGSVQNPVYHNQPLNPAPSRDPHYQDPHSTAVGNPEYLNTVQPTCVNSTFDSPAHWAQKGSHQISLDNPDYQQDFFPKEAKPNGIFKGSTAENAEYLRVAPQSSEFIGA
Sequence of CYP2E1 (P05181 whole entry): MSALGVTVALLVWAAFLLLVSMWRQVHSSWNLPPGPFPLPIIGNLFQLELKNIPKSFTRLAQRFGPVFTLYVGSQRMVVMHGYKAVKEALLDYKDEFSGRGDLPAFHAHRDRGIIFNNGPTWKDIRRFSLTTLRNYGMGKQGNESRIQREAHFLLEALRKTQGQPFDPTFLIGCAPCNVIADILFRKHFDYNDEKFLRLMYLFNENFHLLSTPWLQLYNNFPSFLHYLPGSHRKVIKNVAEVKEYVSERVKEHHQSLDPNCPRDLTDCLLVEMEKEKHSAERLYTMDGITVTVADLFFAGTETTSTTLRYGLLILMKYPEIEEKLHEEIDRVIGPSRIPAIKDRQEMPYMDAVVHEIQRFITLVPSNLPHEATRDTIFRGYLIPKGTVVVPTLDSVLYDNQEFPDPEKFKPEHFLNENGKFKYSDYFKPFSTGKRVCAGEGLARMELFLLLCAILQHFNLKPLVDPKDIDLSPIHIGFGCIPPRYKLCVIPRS
Sequence of CYP3A4 (P08684 whole entry): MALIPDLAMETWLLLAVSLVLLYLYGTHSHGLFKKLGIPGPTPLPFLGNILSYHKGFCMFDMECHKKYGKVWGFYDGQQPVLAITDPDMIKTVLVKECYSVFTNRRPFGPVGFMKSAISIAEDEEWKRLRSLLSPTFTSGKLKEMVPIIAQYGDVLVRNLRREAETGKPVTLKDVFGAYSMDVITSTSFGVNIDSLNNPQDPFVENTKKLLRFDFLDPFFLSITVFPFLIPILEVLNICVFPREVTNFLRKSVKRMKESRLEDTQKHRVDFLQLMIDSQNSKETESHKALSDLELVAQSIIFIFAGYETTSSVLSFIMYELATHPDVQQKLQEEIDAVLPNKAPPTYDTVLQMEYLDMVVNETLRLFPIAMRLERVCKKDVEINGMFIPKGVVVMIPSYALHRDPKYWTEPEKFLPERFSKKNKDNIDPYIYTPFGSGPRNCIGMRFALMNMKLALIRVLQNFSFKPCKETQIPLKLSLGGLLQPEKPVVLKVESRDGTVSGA

The term IC50 denotes the concentration that inhibits the measured activity by half. A low value points to greater potency in that assay. On to `CN(C)C/C=C/C(=O)Nc1cc2c(Nc3ccc(F)c(Cl)c3)ncnc2cc1O[C@H]1CCOC1` [AFATINIB], for which the IC50 stood at 131 nM in the series with NCI-H1975, 0.1 nM in the series on PC-9, 3770 nM in the series on A549 and 1.2 nM with SK-BR-3.

`CC(=O)N1CCN(c2ccc(OCC3COC(Cn4ccnc4)(c4ccc(Cl)cc4Cl)O3)cc2)CC1` (configuration not stated) [KETOCONAZOLE]: the activity at 0.25 h, 10 µM on CYP1A2 turned out to be 92.5%; on CYP2A6, 91.8%; at CYP2B6, 84.1%; on CYP2C8, 95.6%; on CYP2C9, 85%; at CYP2C19 it was 85.8%. For the same molecule, the activity at 0.25 h, 10 µM is 98.1% on CYP2E1 and 35.7% at CYP3A4.

`C=CC(=O)Nc1cc2c(Nc3ccc(F)c(Cl)c3)ncnc2cc1OCc1cn(CCCN2CCOCC2)nn1`: the IC50 in series [1] was 12 nM; in [2], 4 nM; in [3] it was 54 nM; in the series on NCI-H1975, 341 nM; with PC-9 it was 0.6 nM; in the series with A549 it was 8160 nM. The molecule further yielded an IC50 with SK-BR-3 of 19 nM.

As for `C=CC(=O)Nc1cc2c(Nc3ccc(F)c(Cl)c3)ncnc2cc1OCc1cn(Cc2ccccc2F)nn1`, the IC50 in series [1] stood at 65 nM; in [2], 12 nM; in [3], 78 nM; with NCI-H1975 it was 619 nM; in the series with PC-9 it was 1.2 nM.

For `C=CC(=O)Nc1cc2c(Nc3ccc(F)c(Cl)c3)ncnc2cc1OCc1cn(Cc2ccccc2)nn1`, the IC50 in series [1] was 39 nM; in series [2], 8 nM; in series [3], 90 nM; in the series with NCI-H1975, 808 nM; in the series on PC-9, 1.2 nM.

For `C=CC(=O)Nc1cc2c(Nc3ccc(F)c(Cl)c3)ncnc2cc1OCc1cn(Cc2ccc(C)cc2)nn1`, the 50% inhibitory concentration (IC50) amounted to 105 nM in [1]; 15 nM in [2]; 158 nM in series [3]; 417 nM in the series on NCI-H1975; 1.3 nM in the series with PC-9; 737 nM with A549. The molecule also showed a half-maximal inhibitory concentration (IC50) with SK-BR-3 of 216 nM. In series [4], the selectivity ratio was more than 95.

For the molecule `C=CC(=O)Nc1cc2c(Nc3ccc(F)c(Cl)c3)ncnc2cc1OCc1cn(Cc2ccc(OC)cc2)nn1`, the IC50 in series [1] was 41 nM; in series [2] it was 5 nM; in [3], 212 nM; with NCI-H1975, 701 nM; in the series with PC-9, 1.1 nM.

Consider `C=CC(=O)Nc1cc2c(Nc3ccc(F)c(Cl)c3)ncnc2cc1OCc1cn(-c2ccccc2)nn1`, for which the IC50 came to 74 nM in series [1]; 26 nM in [2]; 471 nM in [3]; 4780 nM in the series on NCI-H1975; 32 nM with PC-9.

Turning to `COC(=O)C1=C(C)NC(C)=C(C(=O)OC)C1c1ccccc1[N+](=O)[O-]` [NIFEDIPINE], half-maximal inhibition in the series with HepG2 (IC50) was put at 9400 nM.

As for `C#CCOc1cc2ncnc(Nc3ccc(F)c(Cl)c3)c2cc1NC(=O)C=C`, the IC50 in the series with NCI-H1975 was 1590 nM; in the series on PC-9 it was 2.9 nM; in the series on A549 it was more than 10000 nM; with SK-BR-3, 106 nM.

`C=CC(=O)Nc1cc2c(Nc3ccc(F)c(Cl)c3)ncnc2cc1OCc1cn(CCCO)nn1`: the IC50 in series [1] came to 12 nM; in [2], 4 nM; in [3], 67 nM; in the series with NCI-H1975, 1370 nM; in the series with PC-9, 1.5 nM.

In the case of `C=CC(=O)Nc1cc2c(Nc3ccc(F)c(Cl)c3)ncnc2cc1OCc1cn(CCc2ccccc2)nn1`, the half-inhibitory concentration (IC50) in series [1] turned out to be 41 nM; in [2] it was 12 nM; in series [3] it was 448 nM; in the series with NCI-H1975, 2090 nM; in the series with PC-9 it was 3.6 nM.
